Measured values published in article PMC6337650 (Molecules, 2018).

Experiments:
HCT-116 cells = test: MTT antiproliferative assay, HCT-116; assay type: cell-based, human; settings: Homo sapiens, HCT-116, 48 h, MTT, mean ± SD, n=3; for inhibition at 100 µM: read-out: % Growth Inhibition at 100 μM HCT-116
Experimental: (§1) The antiproliferative activity of the target compounds against a normal L02 cell line and the three different human cancer cell lines viz. colorectal (HCT-116), liver (BEL-7402) and liver (HepG2) were evaluated using a standard MTT-based colorimetric assay. All cell lines were obtained from the Key Laboratory of Natural Resources and Functional Molecules of the Changbai Mountain (Yanbian University, Jilin, China) and maintained in Dulbecco’s modified Eagle’s medium (DMEM) and RPMI Media 1640 (RPMI1640), supplemented with 10% fetal bovine serum (FBS) at 37 °C in a humidified atmosphere containing 5% CO2.
(§2) Cells were plated in 96-well plates at appropriate densities to ensure exponential growth throughout the experimental period (9 × 10^3 cells per well) and then allowed to adhere for 24 h. Cells were then treated for 48 h with four serial concentrations (1, 10, 50 and 100 µM) of each compound. 5-fluorouracil (5-FU) was used as a positive control. After 48 h of incubation, 10 µL of MTT solution was added to each well to a final concentration of 2 mg/mL. Plates were then incubated for a further 4 h. After incubation, the MTT solution was removed and 150 µL of DMSO was added to each well for coloration. The plates were shaken vigorously for 10 min at room temperature to ensure complete solubilization. The optical density (OD) was read on a microplate reader (ELx800, BioTek, Highland Park, Winooski, VT, USA) at a wavelength of 492 nm and the data were subsequently analyzed. The percentage of cell growth inhibition was calculated from the following equation: Inhibitory rate (%) = [(1 − (ODtreated-ODblank)/(ODcontrol-ODblank)] × 100.(1)

HepG2 cells = test: MTT antiproliferative assay, HepG2; assay type: cell-based, human; settings: Homo sapiens, HepG2, 48 h, MTT, mean ± SD, n=3; for inhibition at 100 µM: read-out: % Growth Inhibition at 100 μM HepG2
Experimental: as §1, §2

BEL-7402 cells = test: MTT antiproliferative assay, BEL-7402; assay type: cell-based, human; settings: Homo sapiens, Bel-7402, 48 h, MTT, mean ± SD, n=3; for inhibition at 100 µM: read-out: % Growth Inhibition at 100 μM BEL-7402
Experimental: as §1, §2

SMILES | IC50 (HCT-116 cells) | IC50 (HepG2 cells) | IC50 (BEL-7402 cells) | inhibition at 100 µM (HCT-116 cells) | inhibition at 100 µM (HepG2 cells) | inhibition at 100 µM (BEL-7402 cells) | melting point
O=c1[nH]cc(F)c(=O)[nH]1 [5-FU, 5-fluorouracil, reference compound] | 24.8 ± 2.08 µM | 23.4 ± 0.37 µM | 21.3 ± 2.43 µM | – | – | – | –
C[C@@]12CC[C@@H]3[C@@](CC[C@H]4[C@@]3(C)CCC[C@@]4(C)C(=O)NCCN3CCCC3)(CC1=O)C2 [Compound 1a, (4R,4aS,6aR,9S,11aR,11bS)-4,9,11b-trimethyl-8-oxo-N-(2-(pyrrolidin-1-yl)ethyl)tetradecahydro-6a,9-methanocyclohepta[a]naphthalene-4-carboxamide] | – | – | – | 65.2 ± 2.52% | 66 ± 1.33% | 87.1 ± 2.37% | 136 to 137 °C
CON(C)C(=O)[C@]1(C)CCC[C@@]2(C)[C@@H]3CC[C@@]4(C)C[C@]3(CC[C@@H]21)CC4=O [Compound 1c, (4R,4aS,6aR,9S,11aR,11bS)-N-methoxy-N,4,9,11b-tetramethyl-8-oxotetradecahydro-6a,9-methanocyclohepta[a]naphthalene-4-carboxamide] | – | – | – | < 10% | < 10% | 31.3 ± 1.22% | 144 to 145 °C
CN1CCN(C(=O)COC(=O)[C@]2(C)CCC[C@@]3(C)[C@@H]4CC[C@@]5(C)C[C@]4(CC[C@@H]32)CC5=O)CC1 [Compound 2a, 2-(4-methylpiperazin-1-yl)-2-oxoethyl(4R,4aS,6aR,9S,11aR,11bS)-4,9,11b-trimethyl-8-oxotetradecahydro-6a,9-methanocyclohepta[a]naphthalene-4-carboxylate] | – | – | – | 62.1 ± 1.02% | 40.6 ± 0.7% | 65 ± 2.62% | 112 to 113 °C
C[C@@]12CC[C@@H]3[C@@](CC[C@H]4[C@@]3(C)CCC[C@@]4(C)C(=O)OCC(=O)N3CCN(c4ccccc4)CC3)(CC1=O)C2 [Compound 2c, 2-oxo-2-(4-phenylpiperazin-1-yl)ethyl(4R,4aS,6aR,9S,11aR,11bS)-4,9,11b-trimethyl-8-oxotetradecahydro-6a,9-methanocyclohepta[a]naphthalene-4-carboxylate] | – | – | – | 15.7 ± 0.61% | < 10% | 40.5 ± 0.87% | 143 to 144 °C
COC(=O)C(NC(=O)C1(C)CCCC2(C)C3CCC4(C)CC3(CCC12)CC4=O)C(C)C [Compound 3c, Methyl((4R,4aS,6aR,9S,11aR,11bS)-4,9,11b-trimethyl-8-oxotetradecahydro-6a,9-methanocyclohepta[a]naphthalene-4-carbonyl)-L-valinate] | – | – | – | 54.7 ± 0.59% | 23.9 ± 0.85% | 66.6 ± 1.9% | –
COC(=O)C(Cc1c[nH]c2ccccc12)NC(=O)C1(C)CCCC2(C)C3CCC4(C)CC3(CCC12)CC4=O [Compound 3d, Methyl((4R,4aS,6aR,9S,11aR,11bS)-4,9,11b-trimethyl-8-oxotetradecahydro-6a,9-methanocyclohepta[a]naphthalene-4-carbonyl)-L-tryptophanate] | – | – | – | 19.7 ± 1.11% | < 10% | 35.8 ± 2.37% | 165 to 166 °C
C[C@@]12CC[C@@H]3[C@@](CC[C@H]4[C@@]3(C)CCC[C@@]4(C)C(=O)OCC(=O)Nc3ccccc3Cl)(CC1=O)C2 [Compound 4b, 2-((2-chlorophenyl)amino)-2-oxoethyl(4R,4aS,6aR,9S,11aR,11bS)-4,9,11b-trimethyl-8-oxotetradecahydro-6a,9-methanocyclohepta[a]naphthalene-4-carboxylate] | – | – | – | < 10% | < 10% | < 10% | 107 to 108 °C
C[C@@]12CC[C@@H]3[C@@](CC[C@H]4[C@@]3(C)CCC[C@@]4(C)C(=O)OCC(=O)Nc3cccc(Cl)c3)(CC1=O)C2 [Compound 4c, 2-((3-chlorophenyl)amino)-2-oxoethyl(4R,4aS,6aR,9S,11aR,11bS)-4,9,11b-trimethyl-8-oxotetradecahydro-6a,9-methanocyclohepta[a]naphthalene-4-carboxylate] | – | – | – | 62.3 ± 3.55% | < 10% | 35.7 ± 2.56% | 120 to 122 °C
C[C@@]12CC[C@@H]3[C@@](CC[C@H]4[C@@]3(C)CCC[C@@]4(C)C(=O)OCC(=O)Nc3ccc(Cl)cc3)(CC1=O)C2 [Compound 4d, 2-((4-chlorophenyl)amino)-2-oxoethyl(4R,4aS,6aR,9S,11aR,11bS)-4,9,11b-trimethyl-8-oxotetradecahydro-6a,9-methanocyclohepta[a]naphthalene-4-carboxylate] | – | – | – | 56.9 ± 2.35% | 31.9 ± 1.31% | 52.9 ± 2.11% | 140 to 142 °C
C[C@@]12CC[C@@H]3[C@@](CC[C@H]4[C@@]3(C)CCC[C@@]4(C)C(=O)OCC(=O)Nc3ccccc3F)(CC1=O)C2 [Compound 4e, 2-((2-fluorophenyl)amino)-2-oxoethyl(4R,4aS,6aR,9S,11aR,11bS)-4,9,11b-trimethyl-8-oxotetradecahydro-6a,9-methanocyclohepta[a]naphthalene-4-carboxylate] | – | – | – | 27.9 ± 0.44% | < 10% | 38.7 ± 1.52% | 168 to 169 °C
C[C@@]12CC[C@@H]3[C@@](CC[C@H]4[C@@]3(C)CCC[C@@]4(C)C(=O)OCC(=O)Nc3ccc(F)cc3)(CC1=O)C2 [Compound 4g, 2-((4-fluorophenyl)amino)-2-oxoethyl(4R,4aS,6aR,9S,11aR,11bS)-4,9,11b-trimethyl-8-oxotetradecahydro-6a,9-methanocyclohepta[a]naphthalene-4-carboxylate] | – | – | – | 65.6 ± 3.01% | 39.1 ± 1.13% | 63 ± 2.13% | 140 to 141 °C
COc1ccc(NC(=O)COC(=O)[C@]2(C)CCC[C@@]3(C)[C@@H]4CC[C@@]5(C)C[C@]4(CC[C@@H]32)CC5=O)cc1 [Compound 4i, 2-((4-methoxyphenyl)amino)-2-oxoethyl(4R,4aS,6aR,9S,11aR,11bS)-4,9,11b-trimethyl-8-oxotetradecahydro-6a,9-methanocyclohepta[a]naphthalene-4-carboxylate] | – | – | – | 53.1 ± 2.56% | < 10% | 45.6 ± 1.47% | 86 to 88 °C
COc1ccc(OC)c(NC(=O)COC(=O)[C@]2(C)CCC[C@@]3(C)[C@@H]4CC[C@@]5(C)C[C@]4(CC[C@@H]32)CC5=O)c1 [Compound 4j, 2-((2,5-dimethoxyphenyl)amino)-2-oxoethyl(4R,4aS,6aR,9S,11aR,11bS)-4,9,11b-trimethyl-8-oxotetradecahydro-6a,9-methanocyclohepta[a]naphthalene-4-carboxylate] | – | – | – | < 10% | < 10% | 31.3 ± 1.76% | 166 to 168 °C
CCOP(=O)(OCC)C(NC(=O)COC(=O)[C@]1(C)CCC[C@@]2(C)[C@@H]3CC[C@@]4(C)C[C@]3(CC[C@@H]21)CC4=O)c1ccccc1 (stereo partly drawn) [Compound 6a, 2-(((diethoxyphosphoryl)(phenyl)methyl)amino)-2-oxoethyl(4R,4aS,6aR,9S,11aR,11bS)-4,9,11b-trimethyl-8-oxotetradecahydro-6a,9-methanocyclohepta[a]naphthalene-4-carboxylate] | – | – | – | 50 ± 2.27% | 28 ± 0.99% | 33.7 ± 0.91% | 156 to 157 °C
CCOP(=O)(OCC)C(NC(=O)COC(=O)[C@]1(C)CCC[C@@]2(C)[C@@H]3CC[C@@]4(C)C[C@]3(CC[C@@H]21)CC4=O)c1ccc(Cl)cc1 (stereo partly drawn) [Compound 6b, 2-(((4-chlorophenyl)(diethoxyphosphoryl)methyl)amino)-2-oxoethyl(4R,4aS,6aR,9S,11aR,11bS)-4,9,11b-trimethyl-8-oxotetradecahydro-6a,9-methanocyclohepta[a]naphthalene-4-carboxylate] | – | – | – | 50.3 ± 2.31% | 40.2 ± 2.56% | 50.4 ± 1.63% | 149 to 150 °C
CCOP(=O)(OCC)C(NC(=O)COC(=O)[C@]1(C)CCC[C@@]2(C)[C@@H]3CC[C@@]4(C)C[C@]3(CC[C@@H]21)CC4=O)c1ccc(Cl)c(Cl)c1 (stereo partly drawn) [Compound 6e, 2-(((3,4-dichlorophenyl)(diethoxyphosphoryl)methyl)amino)-2-oxoethyl(4R,4aS,6aR,9S,11aR,11bS)-4,9,11b-trimethyl-8-oxotetradecahydro-6a,9-methanocyclohepta[a]naphthalene-4-carboxylate] | – | – | – | 43.5 ± 0.56% | 39.5 ± 1.37% | 49.9 ± 1.26% | 168 to 169 °C
